What was measured:
Muscle tissue [1] = test: Biodistribution in Sprague-Dawley rat muscle at 11 uCi, iv measured 120 mins post compound dose; type: ADME, organism-based; conditions: in vivo, 2 h
Brain [2] = test: Biodistribution in Sprague-Dawley rat brain assessed as compound level per organ at 11 uCi, iv measured 120 mins post compound dose; type: ADME, organism-based; conditions: in vivo, 2 h
Cortex [3] = test: Biodistribution in Sprague-Dawley rat cortex at 11 uCi, iv measured 120 mins post compound dose; type: ADME, organism-based; conditions: in vivo, 2 h
Striatum = test: Biodistribution in Sprague-Dawley rat striatum at 11 uCi, iv measured 60 mins post compound dose; type: ADME, organism-based; conditions: in vivo, 1 h
Muscle tissue [4] = test: Biodistribution in Sprague-Dawley rat muscle assessed as compound level per organ at 11 uCi, iv measured 2 mins post compound dose; type: ADME, organism-based; conditions: in vivo
Kidney [5] = test: Biodistribution in Sprague-Dawley rat kidney at 11 uCi, iv measured 120 mins post compound dose; type: ADME, organism-based; conditions: in vivo, 2 h
Zone of skin = test: Biodistribution in Sprague-Dawley rat skin assessed as compound level per organ at 11 uCi, iv measured 120 mins post compound dose; type: ADME, organism-based; conditions: in vivo, 2 h
Muscle tissue [6] = test: Biodistribution in Sprague-Dawley rat muscle assessed as compound level per organ at 11 uCi, iv measured 120 mins post compound dose; type: ADME, organism-based; conditions: in vivo, 2 h
Pancreas = test: Biodistribution in Sprague-Dawley rat pancreas at 11 uCi, iv measured 120 mins post compound dose; type: ADME, organism-based; conditions: in vivo, 2 h
Spleen [7] = test: Biodistribution in Sprague-Dawley rat spleen at 11 uCi, iv measured 120 mins post compound dose; type: ADME, organism-based; conditions: in vivo, 2 h
Bone [8] = test: Biodistribution in Sprague-Dawley rat bone assessed as compound level per organ at 11 uCi, iv measured 120 mins post compound dose; type: ADME, organism-based, Bone element; conditions: in vivo, 2 h
Spleen [9] = test: Biodistribution in Sprague-Dawley rat spleen assessed as compound level per organ at 11 uCi, iv measured 30 mins post compound dose; type: ADME, organism-based; conditions: in vivo, 0.5 h
Kidney [10] = test: Biodistribution in Sprague-Dawley rat kidney assessed as compound level per organ at 11 uCi, iv measured 120 mins post compound dose; type: ADME, organism-based; conditions: in vivo, 2 h
Kidney [11] = test: Biodistribution in Sprague-Dawley rat kidney assessed as compound level per organ at 11 uCi, iv measured 30 mins post compound dose; type: ADME, organism-based; conditions: in vivo, 0.5 h
Blood [12] = test: Biodistribution in Sprague-Dawley rat blood assessed as compound level per organ at 11 uCi, iv measured 120 mins post compound dose; type: ADME, organism-based; conditions: in vivo, 2 h
Brain [13] = test: Biodistribution in Sprague-Dawley rat brain at 11 uCi, iv measured 60 mins post compound dose; type: ADME, organism-based; conditions: in vivo, 1 h
Liver = test: Biodistribution in Sprague-Dawley rat liver assessed as compound level per organ at 11 uCi, iv measured 60 mins post compound dose; type: ADME, organism-based; conditions: in vivo, 1 h
Nucleic Acid [14] = test: Ratio of drug level in hypothalamus to cerebellum in Sprague-Dawley rat at 11 uCi, iv measured 120 mins post compound dose; type: ADME, organism-based; conditions: in vivo, 2 h
Bone [15] = test: Biodistribution in Sprague-Dawley rat bone assessed as compound level per organ at 11 uCi, iv measured 30 mins post compound dose; type: ADME, organism-based, Bone element; conditions: in vivo, 0.5 h
Nucleic Acid [16] = test: Ratio of drug level in rest of brain region to cerebellum in Sprague-Dawley rat at 11 uCi, iv measured 2 mins post compound dose; type: ADME, organism-based; conditions: in vivo
Brain [17] = test: Biodistribution in Sprague-Dawley rat rest of brain at 11 uCi, iv measured 60 mins post compound dose; type: ADME, organism-based; conditions: in vivo, 1 h
Bone [18] = test: Biodistribution in Sprague-Dawley rat bone assessed as compound level per organ at 11 uCi, iv measured 2 mins post compound dose; type: ADME, organism-based, Bone element; conditions: in vivo
Hippocampus = test: Biodistribution in Sprague-Dawley rat hippocampus at 11 uCi, iv measured 2 mins post compound dose; type: ADME, organism-based; conditions: in vivo
Bone [19] = test: Biodistribution in Sprague-Dawley rat bone at 11 uCi, iv measured 60 mins post compound dose; type: ADME, organism-based, Bone element; conditions: in vivo, 1 h
Muscle tissue [20] = test: Biodistribution in Sprague-Dawley rat muscle at 11 uCi, iv measured 30 mins post compound dose; type: ADME, organism-based; conditions: in vivo, 0.5 h
Blood [21] = test: Biodistribution in Sprague-Dawley rat blood at 11 uCi, iv measured 120 mins post compound dose; type: ADME, organism-based; conditions: in vivo, 2 h
Cortex [22] = test: Biodistribution in Sprague-Dawley rat cortex at 11 uCi, iv measured 2 mins post compound dose; type: ADME, organism-based; conditions: in vivo
Lung = test: Biodistribution in Sprague-Dawley rat lung at 11 uCi, iv measured 120 mins post compound dose; type: ADME, organism-based; conditions: in vivo, 2 h
Hypothalamus = test: Biodistribution in Sprague-Dawley rat hypothalamus at 11 uCi, iv measured 60 mins post compound dose; type: ADME, organism-based; conditions: in vivo, 1 h
Bone [23] = test: Biodistribution in Sprague-Dawley rat bone at 11 uCi, iv measured 2 mins post compound dose; type: ADME, organism-based, Bone element; conditions: in vivo

CN(C)Cc1cc([125I])ccc1Sc1ccccc1CO
Drug uptake (Muscle tissue [1]): 0.06 % ID/g | Drug uptake (Brain [2]): 0.13 %ID | Drug uptake (Cortex [3]): 0.06 % ID/g | Drug uptake (Striatum): 0.25 % ID/g | Drug uptake (Muscle tissue [4]): 21.9 %ID | Drug uptake (Kidney [5]): 0.57 % ID/g | Drug uptake (Zone of skin): 4.07 %ID | Drug uptake (Muscle tissue [6]): 5.45 %ID | Drug uptake (Pancreas): 0.16 % ID/g | Drug uptake (Spleen [7]): 0.12 % ID/g | Drug uptake (Bone [8]): 0.01 %ID | Drug uptake (Spleen [9]): 0.23 %ID | Drug uptake (Kidney [10]): 1.06 %ID | Drug uptake (Kidney [11]): 2.66 %ID | Drug uptake (Blood [12]): 2.71 %ID | Drug uptake (Brain [13]): 0.14 % ID/g | Drug uptake (Liver): 3.8 %ID | Ratio (Nucleic Acid [14]): 1.93 | Drug uptake (Bone [15]): 0.02 %ID | Ratio (Nucleic Acid [16]): 0.75 | Drug uptake (Brain [17]): 0.13 % ID/g | Drug uptake (Bone [18]): 0.03 %ID | Drug uptake (Hippocampus): 1.28 % ID/g | Drug uptake (Bone [19]): 0.23 % ID/g | Drug uptake (Muscle tissue [20]): 0.21 % ID/g | Drug uptake (Blood [21]): 0.19 % ID/g | Drug uptake (Cortex [22]): 1.39 % ID/g | Drug uptake (Lung): 0.27 % ID/g | Drug uptake (Hypothalamus): 0.32 % ID/g | Drug uptake (Bone [23]): 0.6 % ID/g

From ChEMBL document CHEMBL2311510, “A new single-photon emission computed tomography (SPECT) imaging agent for serotonin transporters: [(125)I]Flip-IDAM, (2-((2-((dimethylamino)methyl)-4-iodophenyl)thio)phenyl)methanol” (Bioorg Med Chem Lett, 2013)
